Biological target: SIRT6 enzyme (Homo sapiens, UniProt Q8N6T7)
Experiment: Measurement of deacetylation activity (SIRT6, AlphaLISA, H3K9(Ac) peptide)
Assay type: biochemical
Settings: SIRT6 25 ng/mL, H3K9(Ac) biotin peptide 2 nM, NAD 10 μM, room temperature 30 minutes, duplicate
Experimental: The reaction was performed in duplicate using a white 384-well plate (3824, Corning or 6008350, PerkinElmer) at a final reaction liquid volume of 20.1 μL. As a control for calculating the enzyme activity, the enzyme-added (DMSO (+)) and enzyme-free (DMSO (−)) wells were set at n=8. Test substances (examples of final concentrations: 0.046, 0.14, 0.41, 1.2, 3.7, 11, 33, and 100 μM) at a concentration of 100 times or 0.1 μL of DMSO was dispensed into the plate and 5 μL of SIRT6 enzyme (prepared by Daiichi Sankyo RD Novare Co., Ltd., final concentration: 25 ng/mL) diluted with an assay buffer (10 mM Tris-HCl pH of 8.0, 0.1% BSA, 0.01% Tween 20, 1 mM DTT, 12.5% Glycerol) was added thereto. The enzymatic reaction was started by adding 5 μL of a mixed solution [Lys(Ac)9]-Histone H3 (1-21)-NH2, H3K9 (Ac), biotin-labeled, amide (AnaSpec, AS-64190, final concentration: 2 nM) and β-nicotinamide adenine dinucleotide (Sigma-Aldrich, N8285-15VL, final concentration: 10 μM), and the reaction was performed at room temperature for 30 minutes. 10 μL of a mixed solution of nicotinamide (Sigma-Aldrich, 72340-100G, final concentration: 100 mM) prepared with AlphaLISA Epigenetics Buffer (PerkinElmer, AL008C), AlphaLISA Anti-unmodified Histone H3 Lysine 9/Lysine 27 (H3K9/K27) Acceptor Beads (PerkinElmer, AL138, final concentration: 10 μg/mL), and AlphaScreen Streptavidin Donor beads (PerkinElmer, 6760002, final concentration: 5 μg/mL) was added thereto, the reaction was performed at room temperature for 60 minutes and then stopped, and acetylation was detected. The emission intensity was measured by EnVision (PerkinElmer).
The relative enzyme activity (%) of the test substance was calculated by the following equation. Relative enzyme activity (%)=[(emission intensity of test substance-added well−emission intensity of DMSO (−) well)/(emission intensity of DMSO (+) well−emission intensity of DMSO (−) well)]×100
The EC150 (the concentration of the compound showing a relative enzyme activity of 150%) of the test substance was calculated based on Sigmoidal dose-response (variable slope) of GraphPad Prism (GraphPad Software) using the value of the relative enzyme activity (%) at each concentration, and the results are listed in Tables 1-1 to 1-5.

SIRT6 enzyme, sequence (Q8N6T7 whole entry, species assumed): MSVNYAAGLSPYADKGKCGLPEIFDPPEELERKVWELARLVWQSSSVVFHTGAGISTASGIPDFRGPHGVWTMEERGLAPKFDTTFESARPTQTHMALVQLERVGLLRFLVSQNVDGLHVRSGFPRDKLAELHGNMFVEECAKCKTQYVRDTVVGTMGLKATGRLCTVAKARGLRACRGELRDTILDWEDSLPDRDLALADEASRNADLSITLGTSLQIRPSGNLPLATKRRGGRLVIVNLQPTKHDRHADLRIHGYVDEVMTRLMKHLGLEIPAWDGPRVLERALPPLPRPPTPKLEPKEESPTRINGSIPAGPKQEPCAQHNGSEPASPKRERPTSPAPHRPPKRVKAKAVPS

SMILES	EC150 (the concentration of the compound showing a relative enzyme activity of 150%)
C[C@H]1NC(=O)N(c2nc3c(s2)[C@@H]2COC[C@H](C3)N2c2nc(-c3ccc(F)cc3)no2)C1=O [Example 20, (5R)-3-{(4S,8S)-10-[3-(4-fluorophenyl)-1,2,4-oxadiazol-5-yl]-4,7,8,9-tetrahydro-5H-4,8-epiminooxocino[5,4-d][1,3]thiazol-2-yl}-5-methylimidazolidine-2,4-dione]	2.6 μm
CNC(=O)Nc1nc2c(s1)[C@@H]1COC[C@H](C2)N1c1nnc(-c2cccc(C(=O)C3CC3)c2)o1 [Example 21, N-[(4S,8S)-10-{5-[3-(cyclopropanecarbonyl)phenyl]-1,3,4-oxadiazol-2-yl}-4,7,8,9-tetrahydro-5H-4,8-epiminooxocino[5,4-d][1,3]thiazol-2-yl]-N′-methylurea]	1.5 μm
CNC(=O)Nc1nc2c(s1)[C@@H]1COC[C@H](C2)N1c1nnc(-c2cccc(OC(F)F)c2)o1 [Example 22, N-[(4S,8S)-10-{5-[3-(difluoromethoxy)phenyl]-1,3,4-oxadiazol-2-yl}-4,7,8,9-tetrahydro-5H-4,8-epiminooxocino[5,4-d][1,3]thiazol-2-yl]-N′-methylurea]	1.3 μm
O=C(Nc1nc2c(s1)CN(c1nc(C3CCC(F)(F)CC3)no1)CC2)N[C@@H]1CCC[C@H]1O [Example 25, N-{5-[3-(4,4-difluorocyclohexyl)-1,2,4-oxadiazol-5-yl]-4,5,6,7-tetrahydro[1,3]thiazolo[5,4-c]pyridin-2-yl}-N′-[(1R,2R)-2-hydroxycyclopentyl]urea]	0.81 μm
O=C(Nc1nc2c(s1)CN(c1nc(C3CCC(F)(F)CC3)no1)CC2)N[C@H]1CC[C@H](O)CC1 [Example 26, N-{5-[3-(4,4-difluorocyclohexyl)-1,2,4-oxadiazol-5-yl]-4,5,6,7-tetrahydro[1,3]thiazolo[5,4-c]pyridin-2-yl}-N′-[(1r,4r)-4-hydroxycyclohexyl]urea]	0.81 μm
COCCCNC(=O)Nc1nc2c(s1)CN(c1nc(C3CCC(F)(F)CC3)no1)CC2 [Example 27, N-{5-[3-(4,4-difluorocyclohexyl)-1,2,4-oxadiazol-5-yl]-4,5,6,7-tetrahydro[1,3]thiazolo[5,4-c]pyridin-2-yl}-N′-(3-methoxypropyl)urea]	2.1 μm
CC(C)(O)CNC(=O)Nc1nc2c(s1)CN(c1nc(C3CCCC(F)(F)C3)no1)CC2 (centres unmarked) [Example 28, N-{5-[3-(3,3-difluorocyclohexyl)-1,2,4-oxadiazol-5-yl]-4,5,6,7-tetrahydro[1,3]thiazolo[5,4-c]pyridin-2-yl}-N′-(2-hydroxy-2-methylpropyl)urea]	2.1 μm
O=C(NC[C@H]1COCCO1)Nc1nc2c(s1)[C@@H]1COC[C@H](C2)N1c1nc(-c2ccc(F)cc2)no1 [Example 29, N-{[(2S)-1,4-dioxan-2-yl]methyl}-N′-{(4S,8S)-10-[3-(4-fluorophenyl)-1,2,4-oxadiazol-5-yl]-4,7,8,9-tetrahydro-5H-4,8-epiminooxocino[5,4-d][1,3]thiazol-2-yl}urea]	0.69 μm
CS(=O)(=O)N1CC2Cc3nc(NC(=O)NC4CCOCC4)sc3C(C1)N2c1nc(-c2ccc(F)cc2)no1 (centres unmarked) [Example 30, N-{10-[3-(4-fluorophenyl)-1,2,4-oxadiazol-5-yl]-6-(methanesulfonyl)-4,5,6,7,8,9-hexahydro-4,8-epimino[1,3]thiazolo[5,4-d]azocin-2-yl}-N′-oxan-4-ylurea]	0.18 μm
CNC(=O)Nc1nc2c(s1)C1CN(S(C)(=O)=O)CC(C2)N1c1nc(-c2ccc(F)cc2)no1 (centres unmarked) [Example 31, N-{10-[3-(4-fluorophenyl)-1,2,4-oxadiazol-5-yl]-6-(methanesulfonyl)-4,5,6,7,8,9-hexahydro-4,8-epimino[1,3]thiazolo[5,4-d]azocin-2-yl}-N′-methylurea]	2.5 μm
CNC(=O)Nc1nc2c(s1)C1CN(C(=O)OC(C)C)CC(C2)N1c1nc(-c2ccc(F)cc2)no1 (centres unmarked) [Example 32, Propan-2-yl 10-[3-(4-fluorophenyl)-1,2,4-oxadiazol-5-yl]-2-[(methylcarbamoyl)amino]-4,7,8,9-tetrahydro-4,8-epimino[1,3]thiazolo[5,4-d]azocine-6(5H)-carboxylate]	0.27 μm
O=C(NCCOCCO)Nc1nc2c(s1)CN(c1nc(C3CCC(F)(F)CC3)no1)CC2 [Example 34, N-{5-[3-(4,4-difluorocyclohexyl)-1,2,4-oxadiazol-5-yl]-4,5,6,7-tetrahydro[1,3]thiazolo[5,4-c]pyridin-2-yl}-N′-[2-(2-hydroxyethoxy)ethyl]urea]	1.9 μm
O=C(Nc1nc2c(s1)CN(c1nc(C3CCC(F)(F)C3)no1)CC2)N[C@H]1C[C@H](O)C1 (some centres unmarked) [Example 35, N-{5-[3-(3,3-difluorocyclopentyl)-1,2,4-oxadiazol-5-yl]-4,5,6,7-tetrahydro[1,3]thiazolo[5,4-c]pyridin-2-yl}-N′-[(1r,3r)-3-hydroxycyclobutyl]urea]	1 μm
CNC(=O)Nc1nc2c(s1)CN(c1nc(C3CCCC(F)(F)C3)no1)CC2 (centres unmarked) [Example 36, N-{5-[3-(3,3-difluorocyclohexyl)-1,2,4-oxadiazol-5-yl]-4,5,6,7-tetrahydro[1,3]thiazolo[5,4-c]pyridin-2-yl}-N′-methylurea]	1.9 μm
O=C(Nc1nc2c(s1)[C@@H]1COC[C@H](C2)N1c1nc(C2(C(F)(F)F)CC2)no1)N[C@@H]1CCOC1 [Example 37, N-[(3R)-oxolan-3-yl]-N′-[(4S,8S)-10-{3-[1-(trifluoromethyl)cyclopropyl]-1,2,4-oxadiazol-5-yl}-4,7,8,9-tetrahydro-5H-4,8-epiminooxocino[5,4-d][1,3]thiazol-2-yl]urea]	4.6 μm
COc1ccc2oc(N3[C@@H]4COC[C@H]3c3sc(NC(=O)N[C@H](C)CO)nc3C4)nc2c1 [Example 38, N-[(2R)-1-hydroxypropan-2-yl]-N′-[(4S,8S)-10-(5-methoxy-1,3-benzoxazol-2-yl)-4,7,8,9-tetrahydro-5H-4,8-epiminooxocino[5,4-d][1,3]thiazol-2-yl]urea]	2 μm
C[C@H](CO)NC(=O)Nc1nc2c(s1)[C@@H]1COC[C@H](C2)N1c1nc2cc(F)ccc2o1 [Example 39, N-[(4S,8S)-10-(5-fluoro-1,3-benzoxazol-2-yl)-4,7,8,9-tetrahydro-5H-4,8-epiminooxocino[5,4-d][1,3]thiazol-2-yl]-N′-[(2R)-1-hydroxypropan-2-yl]urea]	2.5 μm
CCOc1ccc2oc(N3[C@@H]4COC[C@H]3c3sc(NC(=O)NCC(C)(C)O)nc3C4)nc2c1 [Example 40, N-[(4S,8S)-10-(5-ethoxy-1,3-benzoxazol-2-yl)-4,7,8,9-tetrahydro-5H-4,8-epiminooxocino[5,4-d][1,3]thiazol-2-yl]-N′-(2-hydroxy-2-methylpropyl)urea]	3.1 μm
CN(C)c1ccc2oc(N3[C@@H]4COC[C@H]3c3sc(NC(=O)NCC(C)(C)O)nc3C4)nc2c1 [Example 41, N-{(4S,8S)-10-[5-(dimethylamino)-1,3-benzoxazol-2-yl]-4,7,8,9-tetrahydro-5H-4,8-epiminooxocino[5,4-d][1,3]thiazol-2-yl}-N′-(2-hydroxy-2-methylpropyl)urea]	2.5 μm
C[C@H](CO)NC(=O)Nc1nc2c(s1)[C@@H]1COC[C@H](C2)N1c1nc2cc(F)c(F)cc2o1 [Example 42, N-[(4S,8S)-10-(5,6-difluoro-1,3-benzoxazol-2-yl)-4,7,8,9-tetrahydro-5H-4,8-epiminooxocino[5,4-d][1,3]thiazol-2-yl]-N′-[(2R)-1-hydroxypropan-2-yl]urea]	1.3 μm

Reference: patent US11981686B2, “Urea compound having substituent” (DAIICHI SANKYO COMPANY, LIMITED, priority 2019, dated 2024)
